Molecules are shown by their SMILES. Where two headings read alike, the source gives them in different places.

Our source for the IC50 values is patent US7081460B2, “Quinazoline and quinazoline-like compounds for the treatment of integrin-mediated disorders” (Ortho-McNeil Pharmaceutical, Inc., priority 2001, dated 2006).

For experiment [1], the target named is GPIIb/IIIa (Homo sapiens, UniProt P05106+P08514). Briefly: In vitro solid phase purified glycoprotein IIb/IIIa binding assay (biotinylated fibrinogen). The method, boiled down: (§1)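 αvβ3 (1 μg/ml) immobilised in Tris buffer with Ca2+/Mg2+/Mn2+, compounds added 5 min before 5 nM vitronectin, 3 h at 37 °C; bound vitronectin detected by anti-vitronectin antibody/peroxidase ELISA at 490 nm. GPIIb/IIIa coated overnight at 4 °C, biotinylated fibrinogen with compounds 2–4 h RT in modified Tyrodes buffer, avidin-HRP/o-phenylenediamine read at 490 nm.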
GPIIb/IIIa, sequence (P08514 32-887 limits assumed): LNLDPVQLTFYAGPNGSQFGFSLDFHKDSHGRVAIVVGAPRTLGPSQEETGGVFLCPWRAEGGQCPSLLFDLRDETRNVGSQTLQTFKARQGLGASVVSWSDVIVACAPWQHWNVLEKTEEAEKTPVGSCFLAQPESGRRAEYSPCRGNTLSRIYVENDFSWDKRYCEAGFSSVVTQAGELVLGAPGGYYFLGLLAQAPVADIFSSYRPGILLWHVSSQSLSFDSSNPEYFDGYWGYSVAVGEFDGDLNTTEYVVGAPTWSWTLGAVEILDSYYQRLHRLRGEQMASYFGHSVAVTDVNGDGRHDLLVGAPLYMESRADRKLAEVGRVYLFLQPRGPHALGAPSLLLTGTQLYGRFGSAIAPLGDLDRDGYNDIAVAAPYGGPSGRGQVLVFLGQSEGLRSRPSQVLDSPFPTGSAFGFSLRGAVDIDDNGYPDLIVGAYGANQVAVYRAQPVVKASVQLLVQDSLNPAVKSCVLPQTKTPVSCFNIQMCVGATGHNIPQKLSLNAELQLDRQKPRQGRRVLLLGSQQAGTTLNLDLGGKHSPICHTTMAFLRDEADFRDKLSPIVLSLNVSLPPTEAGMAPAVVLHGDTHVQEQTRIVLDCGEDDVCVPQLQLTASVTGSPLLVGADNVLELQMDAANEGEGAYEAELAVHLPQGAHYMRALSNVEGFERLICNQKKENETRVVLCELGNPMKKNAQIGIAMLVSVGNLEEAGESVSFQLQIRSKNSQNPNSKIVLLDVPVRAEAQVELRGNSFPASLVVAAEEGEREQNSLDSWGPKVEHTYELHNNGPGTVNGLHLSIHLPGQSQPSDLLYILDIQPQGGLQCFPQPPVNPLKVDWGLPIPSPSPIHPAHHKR
GPIIb/IIIa, sequence (P08514 891-1039 partner limits assumed): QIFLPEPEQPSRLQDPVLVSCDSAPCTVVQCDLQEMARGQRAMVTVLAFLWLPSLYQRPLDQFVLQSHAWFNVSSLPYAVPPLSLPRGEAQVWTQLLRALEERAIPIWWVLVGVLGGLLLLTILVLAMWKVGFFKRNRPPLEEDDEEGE
GPIIb/IIIa, sequence (P05106 27-788): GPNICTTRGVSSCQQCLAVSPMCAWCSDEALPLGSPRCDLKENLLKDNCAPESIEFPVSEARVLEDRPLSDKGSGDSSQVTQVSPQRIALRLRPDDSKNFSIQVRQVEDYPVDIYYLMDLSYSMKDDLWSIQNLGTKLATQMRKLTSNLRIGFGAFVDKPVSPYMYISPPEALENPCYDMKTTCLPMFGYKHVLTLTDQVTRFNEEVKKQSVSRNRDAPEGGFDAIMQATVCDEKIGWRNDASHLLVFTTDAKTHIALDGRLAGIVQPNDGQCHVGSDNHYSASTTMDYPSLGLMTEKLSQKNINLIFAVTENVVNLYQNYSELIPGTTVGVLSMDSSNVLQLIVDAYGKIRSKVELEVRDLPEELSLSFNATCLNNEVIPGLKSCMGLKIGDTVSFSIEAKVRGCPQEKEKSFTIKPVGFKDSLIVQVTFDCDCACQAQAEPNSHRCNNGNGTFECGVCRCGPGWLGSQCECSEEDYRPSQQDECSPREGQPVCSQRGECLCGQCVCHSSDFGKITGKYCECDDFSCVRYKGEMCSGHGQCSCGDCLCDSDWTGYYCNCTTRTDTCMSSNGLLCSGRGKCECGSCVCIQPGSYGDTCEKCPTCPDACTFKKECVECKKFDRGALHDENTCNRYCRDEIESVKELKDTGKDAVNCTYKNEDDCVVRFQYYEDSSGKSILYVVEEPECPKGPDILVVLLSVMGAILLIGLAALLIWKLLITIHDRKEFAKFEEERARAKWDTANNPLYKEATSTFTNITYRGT

The target of experiment [2] is T1, Human αvβ3 (Homo sapiens, UniProt P05106+P06756).
T1 construct: purchased Chemicon International Inc., Temecula, Calif
T1 sequence (P06756 31-889 limits assumed): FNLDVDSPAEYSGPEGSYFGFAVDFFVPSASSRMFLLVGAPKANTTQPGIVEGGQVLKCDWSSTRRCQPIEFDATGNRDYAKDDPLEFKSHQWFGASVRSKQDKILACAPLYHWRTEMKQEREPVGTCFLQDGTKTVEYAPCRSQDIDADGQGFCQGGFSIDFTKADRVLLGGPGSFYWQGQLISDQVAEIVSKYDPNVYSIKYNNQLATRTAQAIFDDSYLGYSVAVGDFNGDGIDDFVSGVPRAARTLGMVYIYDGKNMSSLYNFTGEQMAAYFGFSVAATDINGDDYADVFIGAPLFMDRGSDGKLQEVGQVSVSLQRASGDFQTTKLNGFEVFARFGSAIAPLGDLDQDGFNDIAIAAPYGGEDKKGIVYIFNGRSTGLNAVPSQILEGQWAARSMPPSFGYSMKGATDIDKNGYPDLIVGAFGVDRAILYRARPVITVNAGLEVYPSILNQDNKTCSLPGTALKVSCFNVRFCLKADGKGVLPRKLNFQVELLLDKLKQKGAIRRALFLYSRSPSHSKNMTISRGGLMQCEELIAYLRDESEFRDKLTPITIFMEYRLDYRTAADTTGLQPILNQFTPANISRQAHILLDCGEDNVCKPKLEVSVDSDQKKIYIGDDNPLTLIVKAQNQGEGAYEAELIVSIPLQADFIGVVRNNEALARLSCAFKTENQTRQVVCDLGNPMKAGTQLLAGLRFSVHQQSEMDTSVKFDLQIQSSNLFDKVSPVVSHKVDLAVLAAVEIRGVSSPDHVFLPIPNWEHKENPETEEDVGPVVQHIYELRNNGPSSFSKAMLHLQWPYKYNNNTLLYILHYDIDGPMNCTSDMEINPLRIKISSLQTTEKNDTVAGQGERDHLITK
T1 sequence (P06756 891-1048 partner limits assumed): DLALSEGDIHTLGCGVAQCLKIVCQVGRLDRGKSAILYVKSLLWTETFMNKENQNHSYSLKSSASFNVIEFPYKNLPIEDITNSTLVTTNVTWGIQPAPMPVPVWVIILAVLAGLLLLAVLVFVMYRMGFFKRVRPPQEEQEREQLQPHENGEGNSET
T1 sequence (P05106 27-788): as the sequence (P05106 27-788) above
Briefly: In vitro solid phase purified αvβ3 binding assay (vitronectin/αvβ3). In outline:
as §1

The mark [3] stands for this setting: RGD-affinity purified GPIIb/IIIa, biotinylated fibrinogen, read-out: GPIIb/IIIa Binding IC50.
Where [4] appears, read: isolated human αvβ3, 5 nM vitronectin, read-out: αvβ3 Binding IC50.

In the case of `COc1ccc(S(=O)(=O)N[C@@H](Cc2nc3ccc(/C=C/CNC(=O)NCc4ccccc4)cc3c(=O)[nH]2)C(=O)O)cc1` [Compound 57, (αS)-3,4-dihydro-α-[[(4-methoxyphenyl)sulfonyl]amino]-4-oxo-6-[(1E)-3-[[[(phenylmethyl)amino]carbonyl]amino]-1-propenyl]-2-quinazolinepropanoic acid], the results for the IC50 in experiment [1] (setting [3]) and in experiment [2] (setting [4]) were 3700 nM and 43 nM, respectively.
`Cc1c(C)c(C)c(S(=O)(=O)N[C@@H](Cc2nc3ccc(/C=C/CNC(=O)NC(C)C)cc3c(=O)[nH]2)C(=O)O)c(C)c1C` [Compound 58, (αS)-3,4-dihydro-6-[(1E)-3-[[[(1-methylethyl)amino]carbonyl]amino]-1-propenyl]-4-oxo-α-[[(2,3,4,5,6-pentamethylphenyl)sulfonyl]amino]-2-quinazolinepropanoic acid]: the results for the IC50 in experiment [1] (setting [3]) and in experiment [2] (setting [4]) were 2500 nM and 44 nM, respectively.
Turning to `CNC(=O)NC/C=C/c1ccc2nc(C[C@H](NS(=O)(=O)c3c(C)c(C)c(C)c(C)c3C)C(=O)O)[nH]c(=O)c2c1` [Compound 59, (αS)-3,4-dihydro-6-[(1E)-3-[[(methylamino)carbonyl]amino]-1-propenyl]-4-oxo-α-[[(2,3,4,5,6-pentamethylphenyl)sulfonyl]amino]-2-quinazolinepropanoic acid], the IC50 in experiment [1] (setting [3]) came out at 3900 nM; in experiment [2] (setting [4]), 59 nM.
`COc1ccc(S(=O)(=O)N[C@@H](Cc2nc3ccc(/C=C/CNC4=NCCCC4)cc3c(=O)[nH]2)C(=O)O)cc1OC` [Compound 60, α-[[(3,4-dimethoxyphenyl)sulfonyl]amino]-(αS)-3,4-dihydro-4-oxo-6-[(1E)-3-[(3,4,5,6-tetrahydro-2-pyridinyl)amino]-1-propenyl]-2-quinazolinepropanoic acid]: the figures for the IC50 in experiment [1] (setting [3]) and in experiment [2] (setting [4]) were 620 nM and 58 nM, respectively.
Consider `Cc1c(C)c(C)c(S(=O)(=O)N[C@@H](Cc2nc3ccc(/C=C/CNc4nc5ccccc5c(=O)[nH]4)cc3c(=O)[nH]2)C(=O)O)c(C)c1C` [Compound 61, 6-[(1E)-3-[(3,4-dihydro-4-oxo-2-quinazolinyl)amino]-1-propenyl]-(αS)-3,4-dihydro-4-oxo-α-[[(2,3,4,5,6-pentamethylphenyl)sulfonyl]amino]-2-quinazolinepropanoic acid], for which the results for the IC50 in experiment [1] (setting [3]) and in experiment [2] (setting [4]) were 12000 nM and 69 nM, respectively.
With `Cc1cc(C)c(S(=O)(=O)N[C@@H](Cc2nc3ccc(/C=C/CNC(=O)NCc4ccccc4)cc3c(=O)[nH]2)C(=O)O)c(C)c1` [Compound 62, (αS)-3,4-dihydro-4-oxo-6-[(1E)-3-[[[(phenylmethyl)amino]carbonyl]amino]-1-propenyl]-α-[[(2,4,6-trimethylphenyl)sulfonyl]amino]-2-quinazolinepropanoic acid], the IC50 in experiment [1] (setting [3]) is 4100 nM; in experiment [2] (setting [4]) it was 79 nM.
Turning to `COc1ccc(OC(=O)N[C@@H](Cc2nc3ccc(/C=C/CNC4=NCCN4)cc3c(=O)[nH]2)C(=O)O)cc1` [Compound 63, 6-[(1E)-3-[(4,5-dihydro-1H-imidazol-2-yl)amino]-1-propenyl]-(αS)-3,4-dihydro-α-[[(4-methoxyphenoxy)carbonyl]amino]-4-oxo-2-quinazolinepropanoic acid], the IC50 was found to be 950 nM in experiment [1] and 100 nM in experiment [2].
Take `C=C(CNC(=O)NC(C)C)c1ccc2nc(C[C@H](NS(=O)(=O)c3c(C)c(C)c(C)c(C)c3C)C(=O)O)[nH]c(=O)c2c1` [Compound 64, (αS)-3,4-dihydro-6-[1-[[[[(1-methylethyl)amino]carbonyl]amino]methyl]ethenyl]-4-oxo-α-[[(2,3,4,5,6-pentamethylphenyl)sulfonyl]amino]-2-quinazolinepropanoic acid]: the IC50 in experiment [1] (setting [3]) was 1100 nM; in experiment [2] (setting [4]), 150 nM.
The matching figures for `Cc1nn(C)c(Cl)c1S(=O)(=O)N[C@@H](Cc1nc2ccc(/C=C/CNC(=O)NCc3ccccc3)cc2c(=O)[nH]1)C(=O)O` [Compound 65, α-[[(5-chloro-1,3-dimethyl-1H-pyrazol-4-yl)sulfonyl]amino]-(αS)-3,4-dihydro-4-oxo-6-[(1E)-3-[[[(phenylmethyl)amino]carbonyl]amino]-1-propenyl]-2-quinazolinepropanoic acid]: 4100 nM and 160 nM.
As for `Cc1c(C)c(C)c(S(=O)(=O)N[C@@H](Cc2nc3ccc(/C=C/CNC(=O)NC4C[C@H]4c4ccccc4)cc3c(=O)[nH]2)C(=O)O)c(C)c1C` (stereo partly drawn) [Compound 66, (αS)-3,4-dihydro-4-oxo-α-[[(2,3,4,5,6-pentamethylphenyl)sulfonyl]amino]-6-[(1E)-3-[[[[(2S)-2-phenylcyclopropyl]amino]carbonyl]amino]-1-propenyl]-2-quinazolinepropanoic acid], the IC50 was found to be 780 nM in experiment [1] (setting [3]) and 210 nM in experiment [2] (setting [4]).
For the compound `O=C(N[C@@H](Cc1nc2ccc(/C=C/CNC3=NCCC3)cc2c(=O)[nH]1)C(=O)O)OCc1ccccc1` [Compound 67, 6-[(1E)-3-[(3,4-dihydro-2H-pyrrol-5-yl)amino]-1-propenyl]-(αS)-3,4-dihydro-4-oxo-α-[[(phenylmethoxy)carbonyl]amino]-2-quinazolinepropanoic acid], the IC50 amounted to 580 nM in experiment [1] (setting [3]) and 420 nM in experiment [2] (setting [4]).
As to `COc1ccc(S(=O)(=O)N[C@@H](Cc2nc3ccc(/C=C/CNC4=NCCCCCC4)cc3c(=O)[nH]2)C(=O)O)cc1OC` [Compound 68, α-[[(3,4-dimethoxyphenyl)sulfonyl]amino]-6-[(1E)-3-[(3,4,5,6,7,8-hexahydro-2-azocinyl)amino]-1-propenyl]-(αS)-3,4-dihydro-4-oxo-2-quinazolinepropanoic acid], the IC50 in experiment [1] (setting [3]) is 230 nM; in experiment [2] (setting [4]) it was 440 nM.
`Cc1ccnc(NC/C=C/c2ccc3nc(C[C@H](NC(=O)OCc4ccccc4)C(=O)O)[nH]c(=O)c3c2)c1` [Compound 69, (αS)-3,4-dihydro-6-[(1E)-3-[(4-methyl-2-pyridinyl)amino]-1-propenyl]-4-oxo-α-[[(phenylmethoxy)carbonyl]amino]-2-quinazolinepropanoic acid]: the values for the IC50 in experiment [1] (setting [3]) and in experiment [2] (setting [4]) were 18000 nM and 490 nM, respectively.
The like results for `O=C(NC/C=C/c1ccc2nc(C[C@H](NS(=O)(=O)Cc3ccccc3)C(=O)O)[nH]c(=O)c2c1)NCc1ccccc1` [Compound 70, (αS)-3,4-dihydro-4-oxo-6-[(1E)-3-[[[(phenylmethyl)amino]carbonyl]amino]-1-propenyl]-α-[[(phenylmethyl)sulfonyl]amino]-2-quinazolinepropanoic acid] were, in that order, 3200 nM and 550 nM.
The matching figures for `CC(C)(C)OC(=O)N[C@@H](Cc1nc2ccc(/C=C/CNC3=NCCCCC3)cc2c(=O)[nH]1)C(=O)O` [Compound 71, α-[[(1,1-dimethylethoxy)carbonyl]amino]-(αS)-3,4-dihydro-4-oxo-6-[(1E)-3-[(3,4,5,6-tetrahydro-2H-azepin-7-yl)amino]-1-propenyl]-2-quinazolinepropanoic acid]: 12000 nM and 960 nM.
The matching figures for `O=C(NC/C=C/c1ccc2nc(C[C@H](NS(=O)(=O)c3cccs3)C(=O)O)[nH]c(=O)c2c1)NCc1ccccc1` [Compound 72, (αS)-3,4-dihydro-4-oxo-6-[(1E)-3-[[[(phenylmethyl)amino]carbonyl]amino]-1-propenyl]-α-[(2-thienylsulfonyl)amino]-2-quinazolinepropanoic acid]: 17000 nM and 1300 nM.
